Patent US20200166671A1, “LIPOIC ACID HYDROGELS” (UNIVERSIDADE DE SANTIAGO DE COMPOSTELA, priority 2017, published 2020)

Columns and labels:
[1] = test system: peroxidase; details: Andrade et al., Exp Eye Res. 2014; cited from earlier work
[2] = Demulcent loading of hydrogel discs functionalized with CD; format: physicochemical; details: 20° C., aqueous demulcent solution
Procedure: Next, a different demulcent was loaded in each disc functionalized with CD.
The weighed hydrogel discs were placed in 5 or 10 mL of aqueous polysorbate 80 solutions (0.2; 0.5 or 1 mg/mL) and kept at 20° C. under magnetic stirring (80 rpm) for 24 hours. Absorbance of the medium was monitored at 234 nm (Agilent […] UV/Vis spectrophotometer, Germany). The amount of loaded polysorbate 80 was estimated from the difference between the amounts in the loading medium before and after the loading tests.
The weighed hydrogel discs were placed in 5 or 10 mL of aqueous PEG4000 solutions (0.1 mg/mL), kept at 20° C. under magnetic stirring (80 rpm) for 48 hours. Aliquots of loading medium were analyzed by means of HPLC. The loaded amount of PEG4000 was estimated from the difference between the amounts in the loading medium before and after the loading tests.
(§1) The weighed hydrogel discs were introduced in vials containing 10 mL of aqueous ALA solution (saturated, ˜0.8 mg/mL). The vials remained under oscillating agitation (150 osc/min) at 20° C. At times 24 and 48 h, a sample of 3 mL of the loading solution was taken and absorbance was measured at 334 nm (Agilent 8453 UV/VIS, Germany). The amount of ALA loaded for every hydrogel was calculated by the difference between the initial content in the loading solution and the remaining content at the end of the test.
The loading results, measured in amount of demulcent for every gram of dry mass of hydrogel, are shown below: […]

[3] = Andrade et al., Exp Eye Res. 2014; cited from earlier work
[4] = Saturated aqueous ALA solution; format: physicochemical
Procedure: as §1

amount of demulcent for every gram of dry mass of hydrogel ([2]; loading 24 h) | amount of demulcent for every gram of dry mass of hydrogel ([2]; loading 48 h) | concentration of saturated aqueous ALA solution [4] | Molecule | peroxidase activity [1] | tear production [3]
57 mg/g | 58 mg/g | ~800 µg/mL | O=C(O)CCCC[C@@H]1CCSS1 [α-lipoic acid] | increases peroxidase activity | increase in tear production
1 mg/g |  |  | Polysorbate 80 |  | 
